US20260151389A1, “Use of Tetramethylpyrazine Nitrone Derivatives In The Treatment of Ischemic Stroke” (GUANGZHOU MAGPIE PHARMACEUTICALS CO., L.T.D., priority 2021, published 2026)

System: patients with acute ischemic stroke
Experiment: multicenter, randomized, double-blind, parallel clinical trial in acute ischemic stroke
Type: in vivo, human
Conditions: for increase in percentage of patients with mRS 0-1 compared to the saline group: non-thrombolytic group, TBN 1400 mg iv twice a day for 7 days
From the text: The present invention adopts a multicenter, randomized, double-blind, parallel trial clinical research design. The patients with acute ischemic stroke included in the clinical trial-center as subjects (all signed informed consent forms) were divided into non-thrombolytic group and thrombolytic group. The non-thrombolytic group consists of the saline group and the TBN group. The thrombolytic group consists of the t-PA group and the combination group of TBN+t-PA.
Subjects of the tests: Patients diagnosed with acute ischemic stroke were selected by clinical trial centers based on the diagnostic criteria of “Chinese Guidelines for the Diagnosis and Treatment of Acute Ischemic Stroke (2018)”.
Administration method: TBN (1400 mg) is dissolved in a sodium chloride injection bag (specification: 100 mL) and administered intravenously for 30 minutes. Dose of t-PA: 0.9 mg/Kg/dose; usage: added to physiological saline, 10% of the dose is administered via injected intravenous injection immediately within 1-2 minutes, and the remaining 90% is administered via intravenous drop infusion within 60 minutes. t-PA is administered only once on the first day of acute ischemic stroke. The medication schedule of TBN: D1-D7 administered twice a day, with an interval of 12 hours, for 7 consecutive days.

Structure (SMILES): Cc1nc(C)c(/C=[N+](\[O-])C(C)(C)C)nc1C [TBN, cis-2-methyl-N-[(3,5,6-trimethylpyrazin-2-)methylene]2-propamine oxide]
- safety and tolerability (clinical trial patients): good safety and tolerability
- increase in percentage of patients with mRS 0-1 compared to the saline group (30th day): 6.6 percentage points
- increase in percentage of patients with mRS 0-1 compared to the saline group (90th day): 3.3 percentage points
